Assay results from patent US20070179137A1, “Screening of anti-viral drugs and pharmaceuticals composition containing thiazolidinone derivatives” (priority 2004, published 2007).
Converted amounts (≈) assume the structure as drawn.

What was measured:
heparin = experiment: Direct interaction of inhibitor compounds with immobilized heparin (pre-incubation versus co-incubation with GBVP); assay type: binding; settings: for Inhibition (%) Co-incubation: GBVP co-incubated with compound for 90 min in control wells; for Inhibition (%) Pre-Incubation: compound pre-incubated with immobilized heparin 90 min, washed, then GBVP added
Experimental: Compounds found to be suitable for further development and chemical optimization may be further subjected to a second screening, identifying those that directly bind to heparin. Individual compounds are incubated with immobilized heparin in the absence of CMV envelope glycoprotein B. After washing of the plates to remove all unbound compound, CMV envelope glycoprotein B is added. At this time, in separate wells, CMV envelope glycoprotein B is co-incubated with the test compounds and the standard assay protocol is followed. Test compounds which bind directly and irreversibly to heparin are identified by comparing the results of pre-incubation versus co-incubation experiments.
96-well ELISA plates are coated with Heparin-BSA, then blocked with BSA as described in Example 1. GBVP Hit Compounds, at final concentration 0.1-200 μM, are incubated in the ELISA plate for 90 min, and then washed with incubation buffer. After washing, GBVP is added to the wells pre-incubated with compounds. At the same time, in separate control wells, GBVP is co-incubated with Hit Compounds for 90 min. Following the incubation, GBVP bound to the plate is quantified by antibody conjugated to horse radish peroxidase and OD measurement as described in Example 1.

[1] = system: Varicella Zoster Virus (VZV); experiment: Cytopathic effect (CPE) inhibition assay on Varicella Zoster Virus in HFF cells; assay type: cell-based; settings: Human alphaherpesvirus 3, HFF, 240 h, ten days incubation
Experimental: Cytopathic effect (CPE) inhibition assays were performed on Varicella Zoster Virus (VZV) as follows. Low passage human foreskin fibroblast (HFF) cells were seeded into 96-well tissue culture plates 24 hours prior to use at a cell concentration of 2.5×10^5 cells per ml in 0.1 ml of MEM supplemented with 10% FBS. The cells were then incubated for 24 hours at 37° C. in a C02 incubator. After incubation, the medium was removed and 125 μl of candidate drug in growth medium (MEM with 10% FBS) was added to the first row in triplicate wells, all other wells containing 100 μl of media. The drug in the first row of wells was then diluted serially 1:5 throughout the remaining wells by transferring 25 μl using the Cetus liquid handling machine. After dilution of drug, 100 μl growth medium containing virus (2500 PFU per well) was added to each well, excluding cell control wells, which received 100 μl of growth medium only. The plates were then incubated at 37° C. in a CO2 incubator for ten days. After the incubation period, media was aspirated and the cells stained with a 0.1% crystal violet solution for four hours. The stain was then removed and the plates rinsed using tap water until all excess stain was removed. The plates were allowed to dry for 24 hours and then read on a BioTek plate reader at 620 nm. […]

[2] = Neutral red uptake cytotoxicity assay; settings: human
[3] = Cytotoxicity in MDBK cells (IC50 used for SI); assay type: cell-based; settings: bovine, MDBK (Madin-Darby bovine kidney) cells, value paired with EC50 to give SI
Text: (§1) Bovine viral diarrhea virus is related to HCV and may serve as a surrogate model for human hepatitis C virus (Yanagida K., et al., ibid).

[4] = system: bovine viral diarrhea virus; experiment: Inhibition of bovine viral diarrhea virus in MDBK cells; assay type: cell-based
Text: as §1

[5] = molecular target: T1, CMV envelope glycoprotein B binding to immobilized heparin (Human cytomegalovirus, UniProt P06473); experiment: Inhibition of CMV envelope glycoprotein B binding to immobilized heparin by soluble heparin; settings: soluble heparin 0.2-10 mg/ml, FIG. 2
T1 construct: purchased Research Diagnostics, INC; RDI-RCMVAG-B
Text: The present invention discloses for the first time the use of CMV envelope glycoprotein B for compound screening and for direct targeting of GAG binding sites. The screening method of the present invention is based on an ELISA assay for CMV envelope glycoprotein B interaction with heparin on 96-well plates, suitable for screening compound collections, newly developed by the inventors of the present invention. The assay measures binding of CMV envelope glycoprotein B to immobilized heparin. The amount of bound CMV envelope glycoprotein B is determined by an ELISA assay using a monoclonal antibody conjugated to horseradish peroxidase. […] Soluble heparin was found according to the present invention to inhibit CMV envelope glycoprotein B binding to immobilized heparin (FIG. 2). This method can be used with other specific GBVPs such as HSV-1 glycoproteins B, C, and D, HHV-7 glycoprotein B, and HCV envelope protein. Additionally, other GAGs are capable of replacing heparin in this kind of assay. […]
Porcine intestinal mucosa heparin conjugated to Bovine Serum Albumin (Heparin-BSA; Sigma Cat. No. H0403) at 5 mg/ml in Phosphate Buffered Saline (PBS; pH 6.5) was added to a 96-well polystyrene ELISA plate (NLNC Cat. No. 442404; 0.1 ml per well) and incubated over night at 4° C. […] The Optical Density (OD) of the samples was measured at 450 nm using an ELISA plate reader (Dynatech MR5000).

T1 sequence (P06473 32-906): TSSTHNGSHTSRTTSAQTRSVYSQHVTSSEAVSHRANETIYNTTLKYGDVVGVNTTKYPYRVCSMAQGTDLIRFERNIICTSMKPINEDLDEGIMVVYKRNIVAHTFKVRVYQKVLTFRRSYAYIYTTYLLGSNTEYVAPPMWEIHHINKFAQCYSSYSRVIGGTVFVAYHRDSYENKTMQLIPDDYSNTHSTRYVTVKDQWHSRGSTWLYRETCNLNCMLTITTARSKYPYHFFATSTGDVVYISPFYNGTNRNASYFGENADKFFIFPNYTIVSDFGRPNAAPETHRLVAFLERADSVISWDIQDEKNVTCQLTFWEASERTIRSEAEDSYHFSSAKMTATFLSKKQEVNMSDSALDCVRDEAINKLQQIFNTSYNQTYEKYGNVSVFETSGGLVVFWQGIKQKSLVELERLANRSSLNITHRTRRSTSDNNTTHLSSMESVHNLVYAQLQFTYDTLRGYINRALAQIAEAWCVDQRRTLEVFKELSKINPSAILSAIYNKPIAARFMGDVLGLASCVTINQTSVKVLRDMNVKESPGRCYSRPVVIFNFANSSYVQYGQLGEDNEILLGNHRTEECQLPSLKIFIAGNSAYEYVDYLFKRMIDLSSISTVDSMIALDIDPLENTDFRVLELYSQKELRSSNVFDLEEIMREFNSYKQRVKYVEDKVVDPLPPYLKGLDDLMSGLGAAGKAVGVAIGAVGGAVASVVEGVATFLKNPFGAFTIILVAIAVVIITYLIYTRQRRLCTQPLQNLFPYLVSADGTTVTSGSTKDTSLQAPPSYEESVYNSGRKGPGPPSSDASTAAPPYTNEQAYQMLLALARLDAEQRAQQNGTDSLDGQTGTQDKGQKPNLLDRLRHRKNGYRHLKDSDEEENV

Molecule | Inhibition (%) Co-incubation (heparin) | Inhibition (%) Pre-Incubation (heparin) | EC50 [1] | CC50 at 7 days [2] | also measured
Cc1ccc2nc(N3CCN(C)CC3)c(C=C3SC(=S)N(Cc4ccccc4)C3=O)c(=O)n2c1 [Compound 5, 4H-Pyrido[1,2-a]pyrimidin-4-one, 3-[(3-phenylmethyl-4-oxo-2-thioxo-5-thiazolidinylidene)methyl]-2-(4-methyl-1-piperazinyl)-7-methyl-] | 66% | 68% | – | – | –
CCCCN1C(=O)/C(=C/c2c(N3CCN(C)CC3)nc3c(C)cccn3c2=O)SC1=S [Compound 10, 4H-Pyrido[1,2-a]pyrimidin-4-one, 3-[(3-butyl-4-oxo-2-thioxo-5-thiazol-idinylidene)methyl]-9-methyl-2-(4-methyl-1-piperazinyl)-] | 80% | 73% | 3.2 mg/L (≈ 6.99 µM) | 11.8 mg/L (≈ 25.8 µM) | –
O=C(CN1C(=O)C(=C2SC(=S)N(CCS(=O)(=O)O)C2=O)c2ccccc21)Nc1cccc(C(F)(F)F)c1 [Compound 11, 5-[1,2-dihydro-2-oxo-1-[2-oxo-2-[[3-(trifluoromethyl)phenyl]amino]ethyl]-3H-indol-3-ylidene]-4-oxo-2-thioxo-3-thiazolidineethanesulfonic acid] | – | – | < 0.03 mg/L | > 100 mg/L | –
O=C1C(=Cc2c(NCCCn3ccnc3)nc3ccccn3c2=O)SC(=S)N1Cc1ccccc1 [Compound 25, 4H-Pyrido[1,2-a]pyrimidin-4-one, 3-[(3-phenylmethyl-4-oxo-2-thioxo-5-thiazolidinylidene)methyl]-2-[[3-(1H-imidazol-1-yl)propyl]amino]-] | 67% | 89% | – | – | –
Cc1cccn2c(=O)c(C=C3SC(=S)N(Cc4ccccc4)C3=O)c(NCCN3CCOCC3)nc12 [Compound 26, 4H-Pyrido[1,2-a]pyrimidin-4-one, 3-[[3-(phenylmethyl)-4-oxo-2-thioxo-5-thiazolidinylidene]methyl]-2-[[2-(4-morpholinyl)ethyl]amino]-9-methyl-] | – | – | – | – | IC50 [3]: > 100 µM; SI [4]: > 17; EC50 ([4]; Bovine viral diarrhea virus isolates and strains): 6 µM
heparin [Soluble heparin] | – | – | – | – | Inhibition of CMV envelope glycoprotein B binding to immobilized heparin [5]: inhibit
